Two compounds from patent US20040067965A1, “Antiviral method of use” (priority 2001, published 2004) can be followed below.

Structures are written as SMILES.

The nature of series [1]: in vitro. It counts as cell-based. The following applies: human.
For series [2], the system named is HCMV strain AD169. The experiment in a line: HCMV plaque reduction (inhibition of virus replication in cell culture). It counts as cell-based, human cytomegalovirus. The following applies: for IC50: Human betaherpesvirus 5, MRC5, HCMV strain AD169, plaque formation, MRC-5 cells, read-out: IC50 = 50% Inhibitory Concentration of HCMV strain AD169 induced plaque formation in MRC-5 Cells. An excerpt:
All materials required for this testing are commercially available. The testing method described is well documented in the literature, see, e.g. Colacino, J M and Lopez C., 1983, “Efficacy and selectivity of some nucleoside analogs as anti-human cytomegalovirus agents.” Antimicrob. Agents Chemother. 24:505-508; Colacino, J M and Lopez C., 1985, “Antiviral activity of 2′-deoxy-2′-fluoro-beta-D-arabinofuranosyl-5-iodocytosine against human cytomegalovirus in human skin fibroblasts.” Antimicrob. Agents Chemother. 28:252-258; and Mauldin, S C, Paget C J Jr., Jones C D, Colacino J M, Baxter A J, Staschke K A, Johansson N G, and Vrang L., 1998, “Synthesis and antiviral activity of prodrugs of the nucleoside 1-[2′,3′-dideoxy-3′-C-(hydroxymethyl)-beta-D-erythropentofuranosyl] cytosine.” Bioorg. Med Chem. 6:577-585.
Human fibroblast cells, foreskin or fetal lung cells, are infected with human cytomegalovirus. The cells are incubated with standard cell culture media containing no or increasing concentrations of ALIMTA. […] Additionally the yield of virus produced in the non-treated infected cell control cultures is compared to the yield of virus produced in the treated infected cell cultures.
The percent inhibition of virus replication can be determined and the concentration of molecule required to inhibit viral replication by 50% (IC50) and 90% (IC90) can be calculated using linear regression analysis.

`Nc1nc2[nH]cc(CCc3ccc(C(=O)N[C@@H](CCC(=O)[O-])C(=O)[O-])cc3)c2c(=O)[nH]1.[Na+].[Na+]` [ALIMTA, disodium N-[4-[2-(2-amino-4,7-dihydro-4-oxo-3H-pyrrolo[2,3-d]-pyrimidin-5-yl)ethyl]benzoyl]-L-glutamic acid salt] returned a CC50 in series [1] of over 100 µM. Further, the “Comments (HCMV screening summary)” value in series [2] (HCMV strain AD169 in MRC-5 cells) is on record as “High activity”. In addition, the IC50 in series [2] was 0.29 µM. For the same compound, the “TI (Therapeutic Index) = TC50/IC50” value in series [2] (TC50 (MRC-5) / IC50 (HCMV AD169 plaque formation), called selective index in text) is over 344.8.

Turning to `Nc1nc(O)c2ncn(COC(CO)CO)c2n1` [Ganciclovir], the CC50 in series [1] was over 100 µM. Further, the IC50 in series [2] came out at 6.37 µM.
